Like-named read-outs stand apart in the source and are kept apart here. Marks after values point to notes of the source that are not given here.
Assays:
in vivo = details: SCID, mouse, iv
[1] = female dogs, Group 4, 4/4 mg/kg/dose, Day 15
[2] = female dogs, Group 4, 4/4 mg/kg/dose, Day −4
[3] = female dogs, Group 4, 4/4 mg/kg/dose, Day −4 (pre-dose)
[4] = male dogs, Group 4, 4/4 mg/kg/dose, Day 15
[5] = male dogs, Group 4, 4/4 mg/kg/dose, Day −4

Structure (SMILES): CCC1(O)C(=O)OCc2c1cc1n(c2=O)Cc2cc3cc4c(cc3nc2-1)OCO4 (stereo not shown) [FL118]
- RET count percentage, max decrease, male (Day 15 vs controls): 30.65%
- leukocyte (WBC) counts, max decrease, male (Day 15 vs controls): 14.33%
- neutrophils counts (#NEUT), max decrease, male (Day 15 vs controls): 18.67%
- reticulocyte (RET) count absolute, max decrease, male (Day 15 vs controls): 33.4%
- clinical signs (all treatment groups): abnormal stool
- Cl (chloride), % Diff versus vehicle Group 1 (female dogs, Group 2, 2.5/[…], Day 15): 0%
- Cl (chloride), % Diff versus vehicle Group 1 (female dogs, Group 2, 2.5/[…], Day −4 (pre-dose)): 0%
- Cl (chloride), % Diff versus vehicle Group 1 (female dogs, Group 3, 3.3/[…], Day 15): −1%
- Cl (chloride), % Diff versus vehicle Group 1 (female dogs, Group 3, 3.3/[…], Day −4 (pre-dose)): −1%
- #EOS (eosinophils, absolute) % Diff vs Group 1 [1]: 6.45%
- #LYMP (lymphocytes, absolute) % Diff vs Group 1 [1]: −12.61%
- #NEUT % Diff [1]: 32.40%
- #RET % Diff [1]: 61.4%
- #RET Mean [1]: 60.5 10^9/L
- % BASO (basophils, percent) % Diff vs Group 1 [1]: −46.7%
- % BASO, basophils, percent, Mean [1]: 0.3%
- % EOS (eosinophils, percent) % Diff vs Group 1 [1]: −5.6%
- % EOS, eosinophils, percent, Mean [1]: 2.2%
- % LYMP (lymphocytes, percent) % Diff vs Group 1 [1]: −21.4%
- % LYMP, lymphocytes, percent, Mean [1]: 27.8%
- % MONO (monocytes, percent) % Diff vs Group 1 [1]: −18.3%
- % MONO, monocytes, percent, Mean [1]: 5.5%
- % NEUT % Diff [1]: 17.0%
- % NEUT Mean [1]: 63.9%
- % RET % Diff [1]: 47.72%
- ALB (albumin), % Diff versus vehicle Group 1 [1]: −1.6%
- ALP (alkaline phosphatase), % Diff versus vehicle Group 1 [1]: −19%
- ALP, alkaline phosphatase, Mean [1]: 110 U/L
- ALT (alanine aminotransferase), % Diff versus vehicle Group 1 [1]: 24%
- ALT, alanine aminotransferase, Mean [1]: 36 U/L
- AST (aspartate aminotransferase), % Diff versus vehicle Group 1 [1]: −7%
- AST, aspartate aminotransferase, Mean [1]: 29 U/L
- BIL-T, total bilirubin, Mean [1]: 1.60 µmol/L
- CK (creatine kinase), % Diff versus vehicle Group 1 [1]: −32%
- CK, creatine kinase, Mean [1]: 200 U/L
- CRE (creatinine), % Diff versus vehicle Group 1 [1]: 12%
- CRE, creatinine, Mean [1]: 54 µmol/L
- Ca, calcium, Mean [1]: 2.53 mmol/L
- Cl (chloride), % Diff versus vehicle Group 1 [1]: 1%
- GGT (gamma-glutamyltransferase), % Diff versus vehicle Group 1 [1]: 0%
- GGT (gamma-glutamyltransferase), Mean [1]: 3 U/L
- HCT % Diff [1]: 9.2%
- HCT Mean [1]: 43.8%
- HGB % Diff [1]: 9.5%
- HGB Mean [1]: 14.8 g/dL
- K (potassium), % Diff versus vehicle Group 1 [1]: −8.3%
- MCH Mean [1]: 23.6 pg
- MCHC % Diff [1]: −0.1%
- MCHC Mean [1]: 33.9 g/dL
- MCV % Diff [1]: −1.6%
- MCV Mean [1]: 69.6 fL
- MPV (mean platelet volume) % Diff vs Group 1 [1]: −6.3%
- MPV, mean platelet volume, Mean [1]: 12.3 fL
- P (inorganic phosphorus), % Diff versus vehicle Group 1 [1]: −11.74%
- PLT (platelet count) % Diff vs Group 1 [1]: −12%
- RBC % Diff [1]: 11.06%
- RDW % Diff [1]: −2.9%
- RDW Mean [1]: 12.5%
- TCHO (total cholesterol), % Diff versus vehicle Group 1 [1]: −6.71%
- TCHO, total cholesterol, Mean [1]: 3.52 mmol/L
- TG (triglyceride), % Diff versus vehicle Group 1 [1]: −27.70%
- TP (total protein), % Diff versus vehicle Group 1 [1]: 3.5%
- TP, total protein, Mean [1]: 57.5 g/L
- UREA (urea), % Diff versus vehicle Group 1 [1]: −3.71%
- WBC % Diff [1]: 12.58%
- sGLU (glucose), % Diff versus vehicle Group 1 [1]: 7.41%
- sGLU, glucose, Mean [1]: 4.59 mmol/L
- TG, triglyceride, Mean (female dogs, Group 4, 4/4 mg/kg/dose, Day 15, * p ≤ 0.05): 0.36* mmol/L
- #BASO (basophils, absolute) % Diff vs Group 1 [2]: 0.00%
- #EOS (eosinophils, absolute) % Diff vs Group 1 [2]: 18.46%
- #LYMP (lymphocytes, absolute) % Diff vs Group 1 [2]: −9.70%
- #MONO (monocytes, absolute) % Diff vs Group 1 [2]: 6.36%
- #NEUT % Diff [2]: 45.57%
- #RET % Diff [2]: −2.5%
- % BASO (basophils, percent) % Diff vs Group 1 [2]: −25.0%
- % BASO, basophils, percent, Mean [2]: 0.2%
- % EOS (eosinophils, percent) % Diff vs Group 1 [2]: 4.5%
- % EOS, eosinophils, percent, Mean [2]: 2.3%
- % LYMP (lymphocytes, percent) % Diff vs Group 1 [2]: −25.5%
- % LYMP, lymphocytes, percent, Mean [2]: 24.4%
- % MONO (monocytes, percent) % Diff vs Group 1 [2]: −14.4%
- % MONO, monocytes, percent, Mean [2]: 6.9%
- % NEUT % Diff [2]: 17.0%
- % RET Mean [2]: 0.71%
- HCT % Diff [2]: 5.4%
- HCT Mean [2]: 44.9%
- HGB % Diff [2]: 7.3%
- HGB Mean [2]: 15.1 g/dL
- MCH Mean [2]: 23.4 pg
- MCHC % Diff [2]: 1.8%
- MCHC Mean [2]: 35.7 g/dL
- MCV % Diff [2]: −1.8%
- MPV, mean platelet volume, Mean [2]: 11.1 fL
- PLT (platelet count) % Diff vs Group 1 [2]: −10%
- RDW Mean [2]: 13.1%
- WBC % Diff [2]: 23.46%
- ALB (albumin), % Diff versus vehicle Group 1 [3]: 1.8%
- ALP (alkaline phosphatase), % Diff versus vehicle Group 1 [3]: −19%
- ALP, alkaline phosphatase, Mean [3]: 129 U/L
- ALT (alanine aminotransferase), % Diff versus vehicle Group 1 [3]: −8%
- ALT, alanine aminotransferase, Mean [3]: 25 U/L
- AST (aspartate aminotransferase), % Diff versus vehicle Group 1 [3]: −11%
- AST, aspartate aminotransferase, Mean [3]: 31 U/L
- BIL-T (total bilirubin), % Diff versus vehicle Group 1 [3]: 23.23%
- CK (creatine kinase), % Diff versus vehicle Group 1 [3]: −39%
- CK, creatine kinase, Mean [3]: 233 U/L
- CRE (creatinine), % Diff versus vehicle Group 1 [3]: 11%
- CRE, creatinine, Mean [3]: 52 µmol/L
- Ca (calcium), % Diff versus vehicle Group 1 [3]: −2.36%
- Cl (chloride), % Diff versus vehicle Group 1 [3]: 2%
- GGT (gamma-glutamyltransferase), % Diff versus vehicle Group 1 [3]: 0%
- GGT (gamma-glutamyltransferase), Mean [3]: 3 U/L
- GLB, globulin, Mean [3]: 27.3 g/L
- K, potassium, Mean [3]: 4.3 mmol/L
- Na (sodium), % Diff versus vehicle Group 1 [3]: 1%
- Na, sodium, Mean [3]: 147 mmol/L
- P (inorganic phosphorus), % Diff versus vehicle Group 1 [3]: −6.41%
- P, inorganic phosphorus, Mean [3]: 1.61 mmol/L
- TCHO (total cholesterol), % Diff versus vehicle Group 1 [3]: −6.71%
- TCHO, total cholesterol, Mean [3]: 3.66 mmol/L
- TG (triglyceride), % Diff versus vehicle Group 1 [3]: −11.26%
- TG, triglyceride, Mean [3]: 0.45 mmol/L
- TP, total protein, Mean [3]: 57.4 g/L
- UREA, urea, Mean [3]: 4.17 mmol/L
- sGLU (glucose), % Diff versus vehicle Group 1 [3]: −0.07%
- NOAEL (for males): 4.4 mg/kg/dose
- Cl (chloride) % Diff vs Group 1 (male dogs, Group 2, 2.5/[…], Day 15): 3%
- Cl (chloride) % Diff vs Group 1 (male dogs, Group 2, 2.5/[…], Day −4): 2%
- Cl (chloride) % Diff vs Group 1 (male dogs, Group 3, 3.3/[…], Day 15): 2%
- Cl (chloride) % Diff vs Group 1 (male dogs, Group 3, 3.3/[…], Day −4): −1%
- ALP (alkaline phosphatase) % Diff vs Group 1 [4]: −31%
- ALT (alanine aminotransferase) % Diff vs Group 1 [4]: 4%
- ALT, alanine aminotransferase, Mean [4]: 29 L⁻¹
- AST (aspartate aminotransferase) % Diff vs Group 1 [4]: −31%
- BIL-T (total bilirubin (diasys)) % Diff vs Group 1 [4]: 31.07%
- BIL-T (total bilirubin (diasys)) Mean [4]: 1.48 L⁻¹
- CK (creatine kinase) % Diff vs Group 1 [4]: −10%
- CK, creatine kinase, Mean [4]: 281 U/L
- GGT (gamma-glutamyltransferase), Mean [4]: 3 U/L
- GLB, globulin, Mean [4]: 28.3* g/L
- K (potassium) % Diff vs Group 1 [4]: −10.3%
- K, potassium, Mean [4]: 4.4 mmol/L
- Na (sodium) % Diff vs Group 1 [4]: 2%
- Na, sodium, Mean [4]: 148 mmol/L
- P, inorganic phosphorus, Mean [4]: 1.63 L⁻¹
- TCHO, total cholesterol, Mean [4]: 4.77 mmol/L
- TG (triglyceride) % Diff vs Group 1 [4]: −15.79%
- UREA (urea) % Diff vs Group 1 [4]: 2.96%
- sGLU (glucose) % Diff vs Group 1 [4]: −6.55%
- sGLU, glucose, Mean [4]: 4.47 L⁻¹
- ALB, albumin, Mean [5]: 11.0 g/L
- ALP (alkaline phosphatase) % Diff vs Group 1 [5]: −5%
- ALP, alkaline phosphatase, Mean [5]: 141 L⁻¹
- ALT (alanine aminotransferase) % Diff vs Group 1 [5]: 3%
- ALT, alanine aminotransferase, Mean [5]: 25 L⁻¹
- AST (aspartate aminotransferase) % Diff vs Group 1 [5]: −3%
- AST, aspartate aminotransferase, Mean [5]: 32 L⁻¹
- BIL-T (total bilirubin (diasys)) Mean [5]: 1.67 L⁻¹
- CK (creatine kinase) % Diff vs Group 1 [5]: 15%
- CRE (creatinine) % Diff vs Group 1 [5]: 8%
- Cl (chloride) % Diff vs Group 1 [5]: 1%
- K (potassium) % Diff vs Group 1 [5]: −2.8%
- K, potassium, Mean [5]: 4.7 mmol/L
- Na (sodium) % Diff vs Group 1 [5]: 0%
- Na, sodium, Mean [5]: 146 mmol/L
- P, inorganic phosphorus, Mean [5]: 1.52 L⁻¹
- TCHO (total cholesterol) % Diff vs Group 1 [5]: −2.15%
- TCHO, total cholesterol, Mean [5]: 4.85 mmol/L
- TG (triglyceride) % Diff vs Group 1 [5]: −8.33%
- TG, triglyceride, Mean [5]: 0.40 mmol/L
- UREA, urea, Mean [5]: 4.25 L⁻¹
- sGLU, glucose, Mean [5]: 4.11 L⁻¹
- Total Bilirubin (BIL-T), max increase, females (vs control group): 16.14%
- Total Bilirubin (BIL-T), max increase, males (vs control group): 47.34%
- Triglyceride (TG), max decrease, females (vs control group): 37.84%
- Triglyceride (TG), max decrease, males (vs control group): 22.56%
- Tmax (in vivo; FaDu tumor): 10 min
- half-life (in vivo; FaDu tumor): 411 min
- Tmax (in vivo; SW620 tumor): 10 min
- half-life (in vivo; SW620 tumor): 765 min
- Tmax (in vivo; plasma): 10 min
- Vd (in vivo; plasma): 36.8 L/kg
- clearance (in vivo; plasma): 238 mL/min/kg
- half-life (in vivo; plasma): 107 min
